Test results from patent publication EP4000400A1, “HERBICIDE COMBINATION COMPRISING GLUFOSINATE, SA[…] TRIFLUDIMOXAZIN” (BASF SE, priority 2020, dated 2022).

How the values were obtained:
[1] = tested on: LOLMU; test: Post-emergence weed control, greenhouse (Example 1), percent injury 14 DAT; format: in vivo; details: Lolium multiflorum, 336 h, Glufosinate 450 g/ha, read-out: Herbicidal action against LOLMU (% activity compared to untreated) Found
Description: (§1) The herbicide compounds applied in the examples were used as experimental or commercially available solo or premix formulations which have been diluted with tap water to a suitable concentration. Glufosinate was used as a commercial SL formulation containing 280 g ai/I of glufosinate (Liberty 280 SL, BASF). While the PPO herbicides saflufenacil and trifludimoxazin were used as solo (saflufenacil - Sharpen/Heat herbicide 342 SC, BASF, or trifludimoxazin - Vulcarus 500 SC, BASF), or a premix of saflufenacil + trifludimoxazin as a 250 + 125 g ai/I SC formulation.
(§2) The evaluation for plant injury or damage caused by the chemical compositions was carried out using a scale from 0 - 100% when compared with the untreated control plants. Here, 0 means no damage and 100 means complete destruction of the plants.
22., E=X+Y-(X*Y/100), where X = effect in percent using herbicide A at an application rate of a; Y = effect in percent using herbicide B at an application rate of b; E = expected effect (in %) of A + B at application rates a + b.
The value E corresponds to the effect (plant damage or injury) which is to be expected if the activity of the individual compounds is just additive. If the observed effect is higher than the value E calculated according to Colby, a synergistic effect is present. […]

[2] = tested on: CARPA; test: Post-emergence weed control, field (Example 2), percent injury 16 DAT; format: in vivo, Cardamine parviflora
Description: as §1, §2
(§3) A natural field population of small flowered bittercress (Cardamine parviflora; CARPA), cressleaf grounsel (Senecio glabellus; SENGL), cutleaf evening primrose (Oenothera laciniate; OEOLA), and annual bluegrass (Poa annua; POAAN) were treated with postemergence applications of either glufosinate at 450 or 655 g ai/ha, saflufenacil + trifludimoxazin at 1.7 + 0.8, or 4.2 + 2.1 g ai/ha, or the combination of glufosinate and saflufenacil + trifludimoxazin at 450 and 1.7 + 0.8, or 4.2 + 2.1 g ai/ha, respectively, when they were 10 - 25 cm in height. […]

[3] = tested on: SENGL; test: as above; format: in vivo, Senecio glabellus
Description: as §1, §2, §3

[4] = tested on: OEOLA; test: as above; format: in vivo, Oenothera laciniate
Description: as §1, §2, §3

[5] = tested on: POAAN; test: as above; format: in vivo, Poa annua
Description: as §1, §2, §3

[6] = tested on: STEME; test: Post-emergence weed control, field (Example 3), percent injury 17 DAT; format: in vivo, Stellaria media
Description: as §1, §2
(§4) A natural field population of common chickweed (Stellaria media; STEME), purple cudweed (Gnaphalium purpureum; GNAPU), henbit (Lamium amplexicaule; LAMAM), and annual bluegrass (Poa annua; POAAN) were treated with postemergence applications of either glufosinate at 450 or 655 g ai/ha, saflufenacil + trifludimoxazin at 1.7 + 0.8, or 4.2 + 2.1 g ai/ha, or the combination of glufosinate and saflufenacil + trifludimoxazin at 450 and 1.7 + 0.8, or 4.2 + 2.1 g ai/ha, respectively, when they were 7.6 - 15 cm in height. […]

[7] = tested on: GNAPU; test: as above; format: in vivo, Gnaphalium purpureum
Description: as §1, §2, §4

[8] = tested on: LAMAM; test: as above; format: in vivo, Lamium amplexicaule
Description: as §1, §2, §4

[9] = tested on: POAAN; test: as above; format: in vivo, Poa annua
Description: as §1, §2, §4

CP(=O)(O)CCC(N)C(=O)O (racemic) [Glufosinate, (2RS)-2-amino-4-[hydroxy(methyl)phosphinoyl]butyric acid]
activity at 450 g/ha [1]: 68.5%
Mean % Control (16 DAT) CARPA ([2]; 450 g ai/ha): 90.7%
Mean % Control (16 DAT) CARPA ([2]; 655 g ai/ha): 95.0%
Mean % Control (16 DAT) SENGL ([3]; 450 g ai/ha): 80.7%
Mean % Control (16 DAT) SENGL ([3]; 655 g ai/ha): 88.7%
Mean % Control (16 DAT) OEOLA ([4]; 450 g ai/ha): 81.7%
Mean % Control (16 DAT) OEOLA ([4]; 655 g ai/ha): 92.3%
Mean % Control (16 DAT) POAAN ([5]; 450 g ai/ha): 80.0%
Mean % Control (16 DAT) POAAN ([5]; 655 g ai/ha): 90.7%
Mean % Control (17 DAT) STEME ([6]; 450 g ai/ha): 53.3%
Mean % Control (17 DAT) STEME ([6]; 655 g ai/ha): 90.0%
Mean % Control (17 DAT) GNAPU ([7]; 450 g ai/ha): 78.3%
Mean % Control (17 DAT) GNAPU ([7]; 655 g ai/ha): 98.7%
Mean % Control (17 DAT) LAMAM ([8]; 450 g ai/ha): 50.0%
Mean % Control (17 DAT) LAMAM ([8]; 655 g ai/ha): 82.7%
Mean % Control (17 DAT) POAAN ([9]; 450 g ai/ha): 66.7%
Mean % Control (17 DAT) POAAN ([9]; 655 g ai/ha): 86.7%
